Test results taken from PubChem BioAssay AID2305 (GlaxoSmithKline (GSK), 2010).

The molecules below were run on P. falciparum 3D7 growth, pLDH absorbance (assay: P. falciparum 3D7 growth inhibition, dose response, strain 3D7 (AID 2305)).

| SMILES | IC50 [nM] |
| --- | --- |
| c1cc(CN2CCC(CCN3CCCCC3)CC2)cc(-c2csc(-c3nc4ccccc4[nH]3)c2)c1 | 140 |
| Cc1cc(Nc2cccc(C(F)(F)F)c2)nc(N)n1 | 790 |
| CC1=C(C(=O)Nc2cc3cn[nH]c3cc2F)C(c2ccc(Cl)c(NS(C)(=O)=O)c2)CC(=O)N1 (centres undefined) | 480 |
| Cc1cc(Nc2ccncc2)n2nc(C)c(-c3ccccc3Cl)c2n1 | 650 |
| C[C@H](Cc1ccc(OCCNC[C@H](O)c2cccc(Cl)c2)cc1)NC[C@H](O)c1ccc(Cl)c(Cl)c1 | 960 |
| CN(C)CCN(C)Cc1cccc(-c2ccc3c(Nc4cc(O)c(Cl)cc4F)ccnc3c2)c1 | 240 |
| CC(C)(CNCc1cc(Cl)cc(Cl)c1)c1nc(-c2ccc(Cl)c(O)c2)c(-c2ccnc(N)n2)[nH]1 | 1010 |
| O=C(c1ccc(Cl)cc1)C1CCN(CCCOc2ccc3c(c2)CCNCC3)CC1 | 1150 |
| Cc1cc(C)cc(CC(=O)N2CCC(n3c(C)nc4ccc(C)cc43)CC2)c1 | 530 |
| Nc1nccc2ccc(-c3ccncc3)cc12 | 250 |
| O=C(Cc1cnc[nH]1)Nc1cccc(-c2ccc(-c3nc4ccccc4[nH]3)cc2)c1 | 760 |
| CC(=O)COc1c(C2CCN(CCCCNC(=O)c3ccc(-c4ccc(C(F)(F)F)cc4)cc3)CC2)ccc2c1CCCC2 | 780 |
| Cn1c(Nc2cc(C(C)(C)C)on2)nc2cc(Nc3ccnc(Nc4cccc(CS(C)(=O)=O)c4)n3)ccc21 | 570 |
| O=C1C(c2ccccc2)=C(Nc2ccc(OC(F)(F)F)cc2)c2ccccc21 | 110 |
| CCCCCN1CCC(NS(=O)(=O)c2cccc(C(=O)Nc3ccc(Cl)cc3)c2)CC1 | 920 |
| CC(Cc1ccc(CN2CCN(Cc3ccccc3)CC2)cc1)NCC(O)c1cccc(C(F)(F)F)c1 (centres undefined) | 890 |
| Nc1ncc(OC2CCCCC2)c(N)n1 | 1070 |
| COc1ccccc1C(=O)C1CCCN(C(=O)c2ccccc2C(F)(F)F)C1 (centres undefined) | 600 |
| COc1cccc(C(=O)NC(c2ccc(Cl)cc2Cl)c2cc(Cl)c3cccnc3c2O)c1 (centres undefined) | 450 |
| COc1cc2nc(N3CCN(C(=O)c4ccc(N(C(=O)OC(C)(C)C)C(=O)OC(C)(C)C)cc4)CC3)nc(N)c2cc1OC | 1000 |
| CC(C)(O)CC(C)(C)c1cc(Cl)ccc1O | 450 |
| COc1ccc(Cn2cncc2CN(CCC(C)C)C(=O)c2ccc(Cl)nc2Cl)cc1 | 1040 |
| CCN(CCNc1nc(NCCc2cnc[nH]2)nc(N(CCC#N)Cc2ccccc2)n1)c1cccc(C)c1 | 710 |
| CCCCCCN1CCC(NCc2ccc(C)cc2)CC1 | 860 |
| COc1ccc(-c2ccc(NC(=O)c3ccc(C#N)cc3)cc2)cc1CN(C)CCO | 630 |

| SMILES | IC50 [nM] |
| --- | --- |
| COc1ccc2nc(Nc3nc4ccncc4[nH]3)sc2c1 | 1130 |
| CN1CCN(CC(=O)Nc2cccc(-c3cccc(-c4nc5ccc(C(F)(F)F)cc5[nH]4)c3)c2)CC1 | 370 |
| CC(C)[C@H](NC(=O)c1c(CN2CCC(N3CCCCC3)CC2)c(-c2ccccc2)nc2cc(O)ccc12)c1ccccc1 | 740 |
| COc1cc(CNC[C@@H](O)[C@H](Cc2ccccc2)NC(=O)c2cc(C3CCCC3)cc(N3CCCCS3(=O)=O)c2)cc(OC)c1 | 700 |
| Nc1c2c(nc3ccc(NC(=O)CCCCCc4ccccc4)cc13)CCCC2 | 440 |
| CC(CN1CCN(C)CC1)C(=O)Nc1ccc(-c2cccc(-c3nc4ccccc4[nH]3)c2)cc1 (centres undefined) | 570 |
| COc1ccc2nc(-c3cc(-c4ccc(NC(=O)CN5CCOCC5)cc4)cnc3N)[nH]c2c1 | 620 |
| CC(C)CC(=O)N(Cc1ccc(-c2ccc(CNC3Cc4ccccc4C3)cc2)cc1)C1CCNCC1 | 1170 |
| Nc1nc(N)c2cc(NS(=O)(=O)c3ccc(-c4ccccc4)cc3)ccc2n1 | 700 |
| Cc1cccc2[nH]c(-c3cccc(-c4cccc(NC(=O)c5csnn5)c4)c3)nc12 | 300 |
| Oc1c(CN2CCCC(C(F)(F)F)C2)cc(Cl)c2ccccc12 (centres undefined) | 1570 |
| O=C(Nc1cccc(C(F)(F)F)c1)NC1CCN(c2ccnc3cc(Cl)ccc23)CC1 | 290 |
| O=C(NCCCCN1CCN(c2cccc3ccccc23)CC1)c1ccc(NC(=O)c2ccc(Cl)cc2)cc1 | 360 |
| O=c1c(Br)c(C(F)(F)F)[nH]c2ccc(Oc3ccccc3)cc12 | 1100 |
| COc1cc(Cc2cnc(N)nc2N)cc(OC)c1OC | 750 |
| CC(C)(C)c1ccc(CN2CCCCC(NC(=O)c3cc(-c4cccc(Cl)c4)cs3)C2)cc1 (centres undefined) | 1000 |
| Cc1nc(N)nc(N)c1-c1ccc(Cl)c(Cl)c1 | 80 |
| O=C(Nc1ccc(F)cc1)N1CCCN(c2ccnc3cc(Cl)ccc23)CC1 | 790 |
| CCCC(C)Nc1nc(C)cc(N[C@@H](CC(C)C)C(=O)NCCOc2ccccc2)n1 (some centres undefined) | 1710 |
| O=C(/C=C/c1ccc(Cl)c(Cl)c1)NCCCCCN1CCC(NC(=O)Nc2cc(Cl)cc(Cl)c2)CC1 | 720 |
| O=C(c1ccc(-c2ccccn2)s1)N1CCc2cc3nccc(N4CCN5CCC[C@H]5C4)c3cc21 | 760 |
| Cc1nc(N)nc(N)c1-c1ccc2ccccc2c1 | 870 |
| Cc1ccc(O)cc1C[C@@H]1C(=O)CC[C@@]2(C)[C@H]1CC[C@]2(C)O | 960 |
| Cc1cc(C)c(NC(=O)N[C@H]2CCN(CCCCCNC(=O)/C=C/c3ccc(Cl)c(Cl)c3)C2)c(C)c1 | 950 |
| COc1cc2nc(N3CCC(CNC(=O)c4ccc(-c5ccc(C(=O)N(C)C)cc5C)cc4)CC3)nc(N3CCN(C)CC3)c2cc1OC | 1230 |

| SMILES | IC50 [nM] |
| --- | --- |
| Nc1ncc(Cc2ccc3c(ccc4ccccc43)c2)c(N)n1 | 760 |
| COc1cc2nc(N(C)Cc3cccc(I)c3)nc(N)c2cc1OC | 860 |
| COc1ccc(Nc2nc(C)cc(NC3CCCC3)n2)cc1 | 870 |
| CC[C@H]1CN2CC[C@H]1C[C@H]2[C@H](O)c1ccnc2ccc(O)cc12 | 640 |
| COc1ccc(CNC(=O)NC2CCN(c3ccnc(Nc4ccc(F)cc4)n3)C2)cc1 (centres undefined) | 840 |
| CN1CCN(c2ccnc3ccc(NC(=O)Cc4ccc(-c5ccncc5)c5ccccc45)cc23)CC1 | 200 |
| Cn1cncc1C(=O)Nc1cccc(-c2csc(-c3nc4ccccc4[nH]3)c2)c1 | 450 |
| CN1CCN(c2ccc(Nc3ncc([N+](=O)[O-])c(Nc4ccccc4O)n3)cc2)CC1 | 720 |
| COc1ccc(-c2nc(-c3ccc([N+](=O)[O-])cc3)no2)cc1OC | 410 |
| O=C(Cc1cnc[nH]1)Nc1ccc(-c2ccc(-c3nc4ccccc4[nH]3)s2)cc1 | 1060 |
| COc1cc(OC)cc(C(=O)Nc2nc(-c3ccccn3)cs2)c1 | 560 |
| CCN(CCCN1CCCCC1)c1cc(C)nc(Nc2cc(Cl)cc(Cl)c2)n1 | 290 |
| Cc1[nH]c(C)c(-c2ccc(Br)cc2)c(=O)c1Cl | 840 |
| CS(=O)(=O)c1cccc(-c2cnc(N)c3cc(-c4cccc(F)c4)ccc23)c1 | 860 |
| N#Cc1ccc(NC(=Nc2ccccc2Br)N(C2CCCCC2)C2CCCCC2)c(O)c1 | 780 |
| Clc1ccc2c(NCCCCCCCCNc3ccnc4cc(Cl)ccc34)ccnc2c1 | 480 |
| CCOc1ccc2c(NN=Cc3cccc(Cl)c3)cc(C)nc2c1 | 860 |
| S=C(Nc1cccc(Cl)c1)NC1CCN(c2ccnc3cc(Cl)ccc23)C1 (centres undefined) | 150 |
| CC[C@H]1CN2CC[C@@H]1C[C@H]2[C@H](O)c1cc(N2CCC(O)CC2)nc2ccc(OC)cc12 | 170 |
| O=C(Nc1cccc(-c2ccc(CN3CCCC3)cc2)c1)c1ccc(Cl)cc1 | 430 |
| CC(=O)C1=NN(c2ccc(C)cc2)C(c2cccs2)N1c1ccccc1 (centres undefined) | 340 |
| Cc1ccc(C)c(NC(=O)Nc2ccc(Nc3nc(C)cc(N4CCOCC4)n3)cc2)c1 | 980 |
| CCOc1ccc2nc(-c3ccccc3)cc(NN=Cc3ccncc3)c2c1 | 150 |
| O=C(/C=C/c1ccc(Cl)c(Cl)c1)NC1CCN(Cc2ccc(O)cc2)C1 (centres undefined) | 950 |
| CC(C)[C@H](NC(=O)c1ccc(O)c(-c2cccc(C(F)(F)F)c2)c1)C(=O)NC1CCCc2ccccc21 (some centres undefined) | 930 |

| SMILES | IC50 [nM] |
| --- | --- |
| O=C(Nc1ccc(Cl)cc1)N[C@H]1CCN(CCCCCNC(=O)[C@@H]2C[C@H]2c2ccc(Cl)c(Cl)c2)C1 | 870 |
| COc1ccc(C2=CCN(c3ccc(Cl)c(Cl)c3)C2=O)cc1OCCN1CCCCC1 | 780 |
| CC(C)N1CCC(Oc2ccc(CN3CCN(C(c4ccccc4)c4ccc(Cl)cc4)CC3)cc2)CC1 (centres undefined) | 940 |
| COc1ccc(CC(=O)NC(CCN2CCC3(CC2)CN(S(C)(=O)=O)c2ccccc23)c2ccc(Cl)c(Cl)c2)cc1OC (centres undefined) | 1000 |
| Brc1ccc(C=NNc2nc3ccccc3[nH]2)cc1 | 700 |
| N#Cc1ccc(CN2CCCN(Cc3cccc(NC(=O)c4ccc(Cl)c(Cl)c4)c3)CC2)cc1 | 850 |
| Cc1ccc(O)cc1Nc1ccnc2cc(-c3cccc(CNCCS(C)(=O)=O)c3)ccc12 | 840 |
| CCCc1c(C(=O)NC2CCC(CN3CCC(c4c[nH]c5ccccc45)CC3)CC2)cnn1-c1ccccc1 (centres undefined) | 1790 |
| CCN(CC)CCN(Cc1ccc(-c2ccc(C(F)(F)F)cc2)cc1)C(=O)Cn1c(CCc2ccc(F)c(C#N)c2)nc(=O)c2ccccc21 | 770 |
| CCn1c(CN2CCN(Cc3ccccc3)CC2)nc2cc(NC(=O)c3cccs3)ccc21 | 400 |
| Oc1ccc2[nH]c(-c3ccc(F)cc3F)nc2c1CN1CCC(O)(c2ccccc2)CC1 | 840 |
| CN1CCC(N(Cc2ccc(-c3cnc(NCc4ccccc4)nc3)cc2)S(=O)(=O)c2ccccc2)CC1 | 780 |
| O=C(NCCCCN1CCC[C@@H]2c3cccc(O)c3CC[C@@H]21)c1ccc(-c2ccccc2)cc1 | 1170 |
| O=C(/C=C/c1ccc(Cl)c(Cl)c1)NCCCCCN1CCCN(C(=O)Nc2cccc(Cl)c2)CC1 | 670 |
| CC(C)CNCc1ccc(-c2cccc(-c3nc4ccccc4[nH]3)c2)cc1 | 630 |
| COc1cc2c(cc1OCCN1CCC(N3CCCCC3)CC1)N(C(=O)/C=C/c1ccccc1Cl)CC2 | 280 |
| COc1cc(Cc2cnc(N)nc2N)cc(OCCCCC2SC(=O)NC2=O)c1OC (centres undefined) | 30 |
| COc1ccc2nc(C)cc(NN=Cc3ccccc3[N+](=O)[O-])c2c1 | 180 |
| Cc1ccc(CNC(=O)c2cnc(N3CCN(c4ccncc4)CC3)c(Cl)c2)cc1 | 1290 |
| CCC(C)c1ccc(NC(=O)Nc2ccc(Cn3ncc(N4CCCNCC4)c(Cl)c3=O)cc2)cc1 (centres undefined) | 1030 |
| CCCNCc1ccc(-c2ccc(CN(Cc3ccc4c(c3)OCO4)C(=O)Cc3cccnc3)cc2)nc1 | 860 |
| COc1cc(CNCCCCCCNCc2cc(OC)c(OC)c3ccccc23)c2ccccc2c1OC | 230 |
| Cc1ccc(-c2nc(N3CCN(C(=O)c4ccco4)CC3)c3ccc(Cl)cc3n2)cc1 | 1210 |
| CC[C@H](C)CNC(=O)c1cccc(-c2cccc(CNCC3CNCCCO3)c2)n1 (some centres undefined) | 1080 |
